For seven molecules, GI50 and TGI results are on record in PubChem BioAssay (NCI).

Test systems include HL-60(TB) leukemia; KM12 colon; NCI/ADR-RES ovarian; PC-3 prostate; T-47D breast; MOLT-4 leukemia; UACC-257 melanoma; SK-MEL-5 melanoma; K-562 leukemia; RXF 393 renal.
Test in all cases: DTP human tumour cell line panel, 48 h

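Dose response: 5 concentrations. Exposure: 48 h. Format: 96-well plates. Endpoint: linear interpolation; highest concentration if not reached. GI50 is the concentration that inhibits growth by half. TGI: total growth inhibition.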 Bounds are passed on as bounds.

By GI50 is commonly meant the concentration at which growth is held to half of that of the control. For orientation: TGI means the concentration at which net growth stops. High values mean lower sensitivity of the cells, low ones greater sensitivity of the cells.

`Cc1ccc(-c2nc(N)c(C#N)c3c2CCOc2c-3ccc3ccccc23)cc1`: the GI50 in the test on HL-60(TB) leukemia was 0.0891 µM; with KM12 colon, 0.203 µM; in the test with NCI/ADR-RES ovarian it was 0.331 µM; in the test on PC-3 prostate, 0.186 µM; in the test with T-47D breast it was 0.954 µM; in the test with MOLT-4 leukemia, 0.42 µM. The GI50 is 0.474 µM with UACC-257 melanoma, 0.0819 µM in the test with SK-MEL-5 melanoma, 0.0614 µM in the test with K-562 leukemia and 0.266 µM in the test with RXF 393 renal. Further, the TGI in the test with HL-60(TB) leukemia was 0.916 µM; with KM12 colon, 48.6 µM; with NCI/ADR-RES ovarian it was 31.5 µM; in the test on PC-3 prostate, 7.51 µM; in the test on T-47D breast, 45.9 µM; in the test on MOLT-4 leukemia, over 100 µM. In addition, the TGI in the test with UACC-257 melanoma was over 100 µM; in the test with SK-MEL-5 melanoma, 1.14 µM; in the test on K-562 leukemia, over 40.8 µM; with RXF 393 renal, 6.29 µM.
Regarding `CCn1c(-c2nonc2N)nc2cncc(C(=O)NCCNC)c21`, the GI50 with HL-60(TB) leukemia was over 25 µM; in the test with KM12 colon, over 25 µM; with NCI/ADR-RES ovarian, 18.9 µM; in the test on PC-3 prostate, over 25 µM; in the test on T-47D breast it was 16.7 µM; in the test on MOLT-4 leukemia, over 25 µM. Moreover, the GI50 was 3.04 µM with UACC-257 melanoma, over 16 µM with SK-MEL-5 melanoma, over 25 µM in the test with K-562 leukemia and 2.57 µM in the test on RXF 393 renal. Besides, the TGI in the test with HL-60(TB) leukemia, in the test on KM12 colon, in the test on NCI/ADR-RES ovarian, with PC-3 prostate, with T-47D breast and in the test with MOLT-4 leukemia was over 25 µM in each case. The TGI with UACC-257 melanoma, with SK-MEL-5 melanoma, with K-562 leukemia and with RXF 393 renal was over 25 µM throughout.
For the molecule `CC1(C)N=C(N)N=C(N)N1c1cccc(CCCCOc2ccccc2)c1`, the GI50 in the test with HL-60(TB) leukemia was 0.0239 µM; in the test with KM12 colon it was 0.0398 µM; with NCI/ADR-RES ovarian, over 100 µM; in the test on PC-3 prostate, under 0.01 µM; in the test on T-47D breast, 1.62 µM; with MOLT-4 leukemia it was 0.0629 µM. Further, the GI50 in the test with UACC-257 melanoma was 0.381 µM; in the test with SK-MEL-5 melanoma, 0.423 µM; with K-562 leukemia it was 0.05 µM; in the test on RXF 393 renal it was 0.147 µM. In addition, the TGI in the test on HL-60(TB) leukemia is 9.6 µM; with KM12 colon it was 25 µM; in the test on NCI/ADR-RES ovarian it was over 100 µM; with PC-3 prostate, 9.96 µM; in the test on T-47D breast, 30.1 µM; in the test on MOLT-4 leukemia it was 36.3 µM. Besides, the TGI with UACC-257 melanoma was 23.5 µM; in the test on SK-MEL-5 melanoma, 5.29 µM; in the test with K-562 leukemia, over 100 µM; with RXF 393 renal, over 100 µM.
On to `CC1OC(n2c3ccccc3c3c4c(c5c6ccccc6[nH]c5c32)C(=O)N(CCN2CCOCC2)C4=O)CC(O)C1O` (stereo not given), for which the GI50 in the test on HL-60(TB) leukemia is 2.28 µM; in the test on KM12 colon it was 2.64 µM; in the test on NCI/ADR-RES ovarian, 2.87 µM; in the test on PC-3 prostate, 3.55 µM; with T-47D breast, 1.37 µM; with MOLT-4 leukemia, 1.2 µM. Further, the GI50 in the test with UACC-257 melanoma is 6.11 µM; in the test on SK-MEL-5 melanoma, 1.59 µM; in the test with K-562 leukemia, 1.85 µM; with RXF 393 renal, 2.82 µM. Further, the TGI with HL-60(TB) leukemia came out at 13.1 µM; with KM12 colon, 10.5 µM; in the test with NCI/ADR-RES ovarian it was 13.1 µM; in the test with PC-3 prostate, 11.4 µM; with T-47D breast, 10.4 µM; with MOLT-4 leukemia, 9.93 µM. For the same molecule, the TGI in the test with UACC-257 melanoma was found to be 14.5 µM; in the test on SK-MEL-5 melanoma, 6.29 µM; with K-562 leukemia, 50 µM; in the test with RXF 393 renal, 10.6 µM.
On to `N#C/C(=C1C=C/C(=N\O)C(Cl)=C\1)c1ccccc1`, for which the GI50 was 2.19 µM in the test on HL-60(TB) leukemia; 0.772 µM in the test with KM12 colon; 1.66 µM in the test with NCI/ADR-RES ovarian; 0.688 µM in the test on PC-3 prostate; 0.6 µM in the test on T-47D breast; 2.91 µM in the test with MOLT-4 leukemia. Also, the GI50 is 4.49 µM in the test on UACC-257 melanoma, 3.05 µM in the test on SK-MEL-5 melanoma, 2.27 µM in the test with K-562 leukemia and 4.72 µM in the test with RXF 393 renal. The TGI was determined as 5.67 µM in the test with HL-60(TB) leukemia; 10.4 µM in the test with KM12 colon; 5.17 µM with NCI/ADR-RES ovarian; 11.7 µM with PC-3 prostate; 11.3 µM with T-47D breast; 9.02 µM in the test on MOLT-4 leukemia. Further, the TGI turned out to be 28.2 µM with UACC-257 melanoma, 10.3 µM with SK-MEL-5 melanoma, 13.5 µM in the test with K-562 leukemia and 18.2 µM with RXF 393 renal.
`CC(=O)OC1Oc2cc(C)c(C)cc2-c2oc(=O)c(-c3ccc(F)cc3)cc21` (stereo not given): the GI50 with HL-60(TB) leukemia is 3.71 µM; in the test on KM12 colon it was 3.55 µM; with NCI/ADR-RES ovarian, 2.86 µM; in the test with PC-3 prostate, 9.67 µM; in the test with T-47D breast, 2.43 µM; with MOLT-4 leukemia, 3.1 µM. Also, the GI50 in the test on UACC-257 melanoma is 10.3 µM; with SK-MEL-5 melanoma, 3.35 µM; with K-562 leukemia it was 3.01 µM; with RXF 393 renal it was 2.95 µM. Also, the TGI was over 100 µM in the test with HL-60(TB) leukemia; 22.4 µM with KM12 colon; 9.34 µM in the test on NCI/ADR-RES ovarian; 39.8 µM in the test with PC-3 prostate; 17.1 µM with T-47D breast; 12.1 µM in the test with MOLT-4 leukemia. Further, the TGI turned out to be 26 µM in the test with UACC-257 melanoma, 17.2 µM in the test with SK-MEL-5 melanoma, 12.3 µM in the test on K-562 leukemia and 8.71 µM with RXF 393 renal.
On to `COc1ccc(OC)c(/C=C2\COc3ccc(O)c(O)c3C2=O)c1`, for which the GI50 with HL-60(TB) leukemia is 1.42 µM; in the test on KM12 colon, 1.73 µM; in the test on NCI/ADR-RES ovarian it was 2.51 µM; in the test on PC-3 prostate, 1.82 µM; in the test with T-47D breast, 2.64 µM; with MOLT-4 leukemia it was 1.97 µM. The GI50 was 2.43 µM in the test with UACC-257 melanoma, 1.75 µM in the test with SK-MEL-5 melanoma, 2.17 µM in the test on K-562 leukemia and 1.83 µM in the test on RXF 393 renal. The TGI with HL-60(TB) leukemia was 16.1 µM; with KM12 colon it was 3.92 µM; in the test with NCI/ADR-RES ovarian, 10.9 µM; in the test on PC-3 prostate, 6.82 µM; in the test on T-47D breast, 15.2 µM; with MOLT-4 leukemia it was over 100 µM. Further, the TGI with UACC-257 melanoma is 7.82 µM; in the test on SK-MEL-5 melanoma, 3.28 µM; in the test on K-562 leukemia, over 100 µM; with RXF 393 renal, 3.58 µM.
